{"source": "paper PMC6232958", "about": "(Molecular Biology of the Cell, 2018)", "system": "CRM1-mediated nuclear export of EYFP2-SV40NLS-NES reporter in HeLa cells", "test": "Inhibition of reporter nuclear export by cotransfected RFP-NES or by LMB", "assay_type": "cell-based", "settings": "HeLa cells expressing EYFP2-SV40NLS-PKI NES treated with LMB (5 nM, 16-18 h)"}
{"smiles": "CCC(=C/[C@H](C)C/C=C/C(C)=C/[C@@H](C)C(=O)[C@@H](C)[C@H](O)[C@@H](C)C/C(C)=C/C(=O)O)/C=C/[C@@H]1OC(=O)C=C[C@@H]1C", "note": "[leptomycin B]", "values": [{"measurement": "decrease of nuclear export of PKI NES", "value": 92, "unit": "%"}]}
